# Source: patent US10137122B2, “Kinase inhibitors and methods of use thereof” (priority 2012, dated 2018)
# Read-outs that look alike come from different tables or passages of the source.
# Experiments:
# [1] = test system: β-catenin nuclear translocation in U2-OS cells; test: β-Catenin nuclear localization assay; assay type: cell-based; settings: read-out: beta-Catenin translocation EC50
# Description: β-Catenin Nuclear Localization Assay
# U2-OS cells stably expressing two complimentary β-galactosidase fragments (one part on β-Catenin and the other constitutively expressed in the cell nucleus) were maintained in DMEM F12 supplemented with 10% FBS. When β-catenin translocates to the nucleus, the complimentary fragments form a complete β-galactosidase, the amount of which is then quantified by β-galactosidase activity (DiscoveRx). Cells were seeded in a 384-well CulturPlate (Perkin Elmer, Boston, Mass.) with 10,000 per well in 20 μL DMEM F12 containing 10% FCS, 100 U/ml penicillin and 100 μg/mL streptomycin. After overnight incubation at 37° C., cells were stimulated with 100 nL test compound/well and then returned to the incubator for 6 h. Cells were disrupted using 12 μL substrate-containing lysis buffer from the PathHunter Detection Kit in the formulation specified by the supplier (DiscoveRx). Plates were incubated in the dark for 1 h at room temperature before measurement of β-galactosidase activity (luminescence) on an EnVision plate reader (PerkinElmer, Waltham, Mass.).
# [2] = test system: TCF/LEF reporter in HEK293-pBARL cells; settings: read-out: TCF/LEF EC50
# Description: (§1) HEK293-pBARL cells were derived from HEK293 cells and they stably expressed a firefly-luciferase reporter gene driven by a promoter containing 12 copies of TCF/LEF binding sequences. These cells were maintained in DMEM and supplemented with 10% FBS and 1% penicillin-streptomycin (Invitrogen). Reporter gene assays were conducted in anti-biotic free media. […] These cells also contained a renilla-luciferase reporter gene driven by the ubiquitous EF1α promoter as a control. HEK293-pBarl reporter cell lines were seeded into 384-well culture plates (Corning) at 6000 cells/well. 24 hours after plating, cells were treated overnight with relevant compounds and assayed using DualGlo assay kit (Promega). Luminescent intensities were read by EnVision (PerkinElmer, Waltham, Mass.). Firefly luciferase intensity is normalized by renilla luciferase intensity.
# (§2) Cells were cultured in 384 well plates to appropriate density (40 μl total plating volume). 24 hours after plating, cells were treated with 100 nl compounds. 24 hours after incubation with compounds (48 hours after plating), assay reagents were prepared by mixing Luciferase Assay solution with Luciferase substrate and Stop & Glo solution to Stop & Glo substrate (extra reagents can be aliquoted and frozen for future use and are stable for at least one freeze/thaw cycle). […] The plate was spun down and 10 minutes were allowed for signal stabilization. Luciferase signal on the Perkin Elmer EnVision using the following parameters: Distance between plate & detector (mm)=0.2; Measurement time(s)=0.1; Glow (CT2) correction factor=0. Once the initial data is secure, a volume of Stop & Glo was added equal to each well equal to the volume of Luciferase reagent added above (If 10 μl Luciferase Reagent was added, 10 μl Stop & Glo was also added). The plate was spun down and 10 minutes were allowed for signal stabilization. The plate was read on the EnVision using the same parameters detailed above.
# [3] = target: CDK5/p25 (Homo sapiens (Human), UniProt Q00535)
# Chain of CDK5/p25 (Q00535 whole entry, species assumed): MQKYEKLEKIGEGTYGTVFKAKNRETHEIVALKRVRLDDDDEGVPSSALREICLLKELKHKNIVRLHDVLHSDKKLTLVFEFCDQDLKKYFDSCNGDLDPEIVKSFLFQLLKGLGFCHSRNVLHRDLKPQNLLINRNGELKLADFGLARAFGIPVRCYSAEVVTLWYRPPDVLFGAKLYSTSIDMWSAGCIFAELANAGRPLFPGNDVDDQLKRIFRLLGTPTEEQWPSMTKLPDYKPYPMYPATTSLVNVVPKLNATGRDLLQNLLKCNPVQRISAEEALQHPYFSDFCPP
# Chain of CDK5/p25 (Q15078 99-307 partner, species assumed): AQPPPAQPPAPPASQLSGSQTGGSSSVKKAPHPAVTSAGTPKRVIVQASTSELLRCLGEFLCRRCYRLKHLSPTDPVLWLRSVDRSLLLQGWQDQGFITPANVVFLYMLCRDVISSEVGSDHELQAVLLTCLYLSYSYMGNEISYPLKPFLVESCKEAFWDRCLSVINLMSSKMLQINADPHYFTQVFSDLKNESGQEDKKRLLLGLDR
# Description: Biochemical characterization of these synthesized compounds were assayed against GSK3β and CDK5/p25, with CDK5/p25 serving as a counter target of GSK3β selectivity. […] The effects of these compounds on survival of SH-SY5Y pathophysiology cells were also monitored.
# [4] = test system: TCF/LEF reporter in HEK293-pBARL cells; test: cells; settings: Homo sapiens, HEK293, read-out: TCF/LEF EC50 (μM)
# Description: as §1, §2
# [5] = test system: phospho-Tau (Ser199) in SH-SY5Y cells; test: Tau phosphorylation assay (phospho-Tau Ser199 ELISA); assay type: cell-based, human; settings: read-out: p-Tau Inhibition ELISA EC50 SH-SY5Y
# Description: Tau Phosphorylation and Total Tau Assay
# SH-SY5Y cells were maintained in DMEM supplemented with 10% heat-inactivated FBS and 1% penicillin-streptomycin (Invitrogen) unless otherwise stated. ELISA kits for phospho-Tau (Ser199) and total Tau detection were purchased from Invitrogen (KHB0041, and KHB7041 respectively). Briefly, SH-SY5Y cells were seeded at 50,000 cells/200 μL/well in 96 well plates and after overnight incubation, treated with various doses of chemical compounds at 0.2 μL/well. The next day cells were washed with PBS twice before being lysed in 100 μL Lysis buffer/well. 50 μL of cell lysate of each sample was transferred to an ELISA vial coated with the capture antibody, and the mixture was incubated at room temperature for 2 hours, before the supernatant was aspired, and each vial washed four times. 100 μL of detection antibody was then added to each well, incubated for 1 hour, and then washed four times. […] Data were scaled using the positive and neutral controls and fitted for IC50.
# A standard protocol using an immunoassay kit to quantify total Tau protein and phospho-Tau (Ser199) protein in SH-SY5Y human neuroblastoma cells was employed. Human Tau (Total) ELISA kit (#KHB0041) and human phosphor-Tau (Ser199) ELISA kit were purchased from Invitrogen (#KHB7041)
# 50,000 cells were seeded in 200 μl per well in cell culture media (250,000 cells/ml). Cells were incubated overnight @37° C. Cells were induced with appropriate doses of inhibitors and incubated for approximately 24 hrs @37° C. Cell lysates were harvested by washing cells once with cold PBS and adding 100 μl cold lysis buffer and pipette up and down vigorously. Lysate was transferred to 96 well PCR plate and centrifuged at 4,000 rpm for 20 minutes at 4° C.
# Well strips were warmed and inserted into the frame. 100μ of standard diluent buffer were loaded into ZERO wells, and 100 ul of each standard concentrations (both total Tau and pTau) were loaded into wells in duplicate. Samples were loaded to each well that would be analyzed for total Tau, 85 μl standard diluent buffer and 15 μl cell lysate were added. To each well that will be analyzed for pTau (Ser199) 50 μl standard diluent buffer+50 μl cell lysate were added. Plates were tapped gently on the side to mix. Certain wells were left empty for chromogen blank. Plates were covered and incubated for 2 hours at room temperature. Wells were aspirated 4 times (400 μl diluted wash buffer, left for 30 seconds, aspirated all wells; alternatively used automated plate washer and programmed in a 30 second hold between each cycle). 100 μl of detection antibody solution were added to each well except chromogen blanks. Anti-total Tau was added to wells being analyzed for total Tau, anti-pTau (Ser199) was added to wells being analyzed for pTau (Ser199), and plates were tapped gently on the side to mix. Plates were covered and incubated for 1 hour at room temperature, then wells were aspirated and washed 4 times as described above. 100 μl of anti-rabbit IgG HRP working solution (prepared ahead) were added to each well except chromogen blanks, and plates were covered and incubated for 30 minutes at room temperature, then wells were aspirated and washed 4 times as described above. 100 μl of stabilized chromogen were added to each well (the liquid turned blue). Plates were incubates for 30 minutes at room temperature in the dark, then 100 μl of stop solution were added to each well, and plates were tapped gently on the side to mix. Absorbance of each well was read at 450 nm (within 2 hours of adding stop solution).
# [6] = target: GSK3α (Homo sapiens (Human), UniProt P49840)
# Chain of GSK3α (P49840 whole entry): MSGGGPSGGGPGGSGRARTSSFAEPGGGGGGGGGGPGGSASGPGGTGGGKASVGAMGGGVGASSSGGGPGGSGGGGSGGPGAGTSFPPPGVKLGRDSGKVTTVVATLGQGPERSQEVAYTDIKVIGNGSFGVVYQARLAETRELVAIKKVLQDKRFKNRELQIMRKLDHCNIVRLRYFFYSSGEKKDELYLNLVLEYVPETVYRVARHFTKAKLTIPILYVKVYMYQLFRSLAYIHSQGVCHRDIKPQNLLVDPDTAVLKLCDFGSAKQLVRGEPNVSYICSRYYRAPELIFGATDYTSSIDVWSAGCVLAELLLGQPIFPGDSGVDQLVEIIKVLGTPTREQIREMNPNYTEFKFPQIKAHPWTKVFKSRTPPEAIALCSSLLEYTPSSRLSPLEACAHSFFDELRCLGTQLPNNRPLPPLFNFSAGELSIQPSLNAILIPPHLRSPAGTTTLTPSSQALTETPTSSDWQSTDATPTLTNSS
# Description: GSK3β Microfluidic Mobility-Shift Assay
# Reactions were terminated by the addition of 10 mM EDTA. Substrate and product were separated electrophoretically and fluorescence intensity of the substrate and product was determined by Labchip EZ Reader II (Caliper Life Sciences, MA). The kinase activity was measured as percent conversion. The reactions were performed in duplicate for each sample. […] The results were analyzed by Genedata Assay Analyzer. The percent inhibition was plotted against the compound concentration and the IC50 value was determined from the logistic dose-response curve fitting.
# [7] = mouse, microsomes, 1 h
# [8] = mouse plasma, 5 hours
SMILES,EC50 [1] [µM],EC50 [2] [µM],ADP Glo Assay GSK3β vs CDK5 fold selectivity [3] [X],other results
Cc1[nH]nc2c1C(C)C1=C(CC(C)(C)CC1=O)N2 (stereo not drawn) [Compound 42],> 50,> 25,23,
CC1(C)CC(=O)C2=C(C1)Nc1n[nH]c(C(F)(F)F)c1C2c1cc(F)ccc1OC(F)(F)F (stereo not drawn) [Compound 61],,> 25,,
"Cc1[nH]nc2c1C(c1cccc(C#N)c1)C1=C(CC(C)(C)CC1=O)N2 (stereo not drawn) [Compound 33, 3-(3,7,7-trimethyl-5-oxo-4,5,6,7,8,9-hexahydro-2H-pyrazolo[3,4-b]quinolin-4-yl)benzonitrile]",,,,"EC50 ([1]; Homo sapiens, U2OS): 12 µM; EC50 [4]: 5.16 µM; EC50 ([5]; Homo sapiens, SH-SY5Y): 2.5 µM"
CC1(C)CC(=O)C2=C(C1)Nc1n[nH]c(C(F)(F)F)c1C2c1cc(F)ccc1F (stereo not drawn) [Compound 60],,> 25,,
"Cc1[nH]nc2c1C(c1cccc3nonc13)C1=C(CC(C)(C)CC1=O)N2 (stereo not drawn) [Compound 41, 4-(benzo[c][1,2,5]oxadiazol-4-yl)-3,7,7-trimethyl-6,7,8,9-tetrahydro-2H-pyrazolo[3,4-b]quinolin-5(4H)-one]",,,51,"EC50 ([1]; Homo sapiens, U2OS): 11.8 µM; IC50 [6]: < 0.1 µM; EC50 [4]: 6.7 µM; EC50 ([5]; Homo sapiens, SH-SY5Y): 2.27 µM"
Cc1[nH]nc2c1C(c1ccccc1)(C(F)(F)F)C1=C(CC(C)(C)CC1=O)N2 (stereo not drawn) [Compound 83],,,,Microsomal stability 60 min [7]: 51.5%
COc1ccccc1C1C2=C(CC(C)(C)CC2=O)Nc2n[nH]c(C(C)(C)C)c21 (stereo not drawn) [Compound 50],> 50,> 25,,
"Cc1[nH]nc2c1[C@@H](c1ccccc1C(F)(F)F)C1=C(CC(C)(C)CC1=O)N2 (stereo in doubt) [Compound 29, 3,7,7-trimethyl-4-(2-(trifluoromethyl)phenyl)-6,7,8,9-tetrahydro-2H-pyrazolo[3,4-b]quinolin-5(4H)-one]",,,,"EC50 ([1]; Homo sapiens, U2OS): > 50 µM; EC50 [4]: > 25 µM; EC50 ([5]; Homo sapiens, SH-SY5Y): > 30 µM"
CC1(C)CC(=O)C2=C(C1)Nc1n[nH]c(C3CC3)c1C2(C)c1ccccc1 (racemic) [Compound 113],,,,"EC50 ([5]; Homo sapiens, SH-SY5Y): 4.8 µM; Plasma stability % remaining [8]: 90.5%"
Cc1[nH]nc2c1C(c1ccccc1Br)C1=C(CC(C)(C)CC1=O)N2 (stereo not drawn) [Compound 16],,,14,
COc1ccccc1C1C2=C(CC(C)(C)CC2=O)Nc2n[nH]cc21 (stereo not drawn) [Compound 47],,,34,
Cc1[nH]nc2c1C(C1CC1)C1=C(CC(C)(C)CC1=O)N2 (stereo not drawn) [Compound 43],> 50,> 25,,EC50 [5]: > 30 µM
CC1(C)CC(=O)C2=C(C1)Nc1n[nH]c(C(F)(F)F)c1C2c1cc(F)ccc1C(F)(F)F (stereo not drawn) [Compound 64],,> 25,,
"Cc1[nH]nc2c1C(c1ccccc1C(F)(F)F)C1=C(CC(C)(C)CC1=O)N2 (racemic) [Compound 27, 3,7,7-trimethyl-4-(2-(trifluoromethyl)phenyl)-6,7,8,9-tetrahydro-2H-pyrazolo[3,4-b]quinolin-5(4H)-one]",,,34,"EC50 ([1]; Homo sapiens, U2OS): 12 µM; EC50 [4]: 9.59 µM; EC50 ([5]; Homo sapiens, SH-SY5Y): 4.24 µM"
COc1ccccc1C1C2=C(CC3(CCCCC3)CC2=O)Nc2n[nH]c(C)c21 (stereo not drawn) [Compound 56],> 50,> 25,,
"Cc1[nH]nc2c1C(c1cccc(C(F)(F)F)c1)C1=C(CC(C)(C)CC1=O)N2 (stereo not drawn) [Compound 30, 3,7,7-trimethyl-4-(3-(trifluoromethyl)phenyl)-6,7,8,9-tetrahydro-2H-pyrazolo[3,4-b]quinolin-5(4H)-one]",,,,"EC50 ([1]; Homo sapiens, U2OS): 11.2 µM; EC50 [4]: 7.67 µM; EC50 ([5]; Homo sapiens, SH-SY5Y): 4.68 µM"
"Cc1[nH]nc2c1C(C)(c1cccc(C#N)c1)C1=C(CC(C)(C)CC1=O)N2 (racemic) [Compound 95, 3-(1,6,6,9-tetramethyl-8-oxo-4,5,6,7,8,9-hexahydro-2H-pyrazolo[3,4-b]quinolin-9-yl)benzonitrile]",,,,"EC50 ([5]; Homo sapiens, SH-SY5Y): 6.35 µM; Plasma stability % remaining [8]: 99.0%"
Cc1[nH]nc2c1C(C1CCCCC1)C1=C(CC(C)(C)CC1=O)N2 (stereo not drawn) [Compound 44],> 50,> 25,,
"CC1(C)CC(=O)C2=C(C1)Nc1n[nH]c(C(F)(F)F)c1C2(C)c1ccccc1 (racemic) [Compound 68, 4,7,7-trimethyl-4-phenyl-3-(trifluoromethyl)-6,7,8,9-tetrahydro-2H-pyrazolo[3,4-b]quinolin-5(4H)-one]",,,244,"EC50 ([1]; Homo sapiens, U2OS): 10.8 µM; EC50 [4]: 7.77 µM"
COc1ccccc1C1C2=C(CC(C)(C)CC2=O)Nc2n[nH]c(-c3ccccc3)c21 (stereo not drawn) [Compound 51],> 50,> 25,,
COc1ccccc1C1C2=C(CCCC2=O)Nc2n[nH]c(C)c21 (stereo not drawn) [Compound 46],> 50,> 25,6,
CC1(C)CC(=O)C2=C(C1)Nc1n[nH]cc1[C@]2(C)c1ccccc1 (racemic) [Compound 108],,,,Plasma stability % remaining [8]: 96.6%
"Cc1ccccc1C1C2=C(CC(C)(C)CC2=O)Nc2n[nH]c(C)c21 (stereo not drawn) [Compound 17, 3,7,7-trimethyl-4-(o-tolyl)-6,7,8,9-tetrahydro-2H-pyrazolo[3,4-b]quinolin-5(4H)-one]",,,14,"EC50 ([1]; Homo sapiens, U2OS): > 50 µM; IC50 [6]: < 0.1 µM; EC50 [4]: > 25 µM"
CCc1[nH]nc2c1C(c1ccccc1OC)C1=C(CC(C)(C)CC1=O)N2 (stereo not drawn) [Compound 48],,,35,
CC1(C)CC(=O)C2=C(C1)Nc1n[nH]c(C(F)(F)F)c1C2c1ccccc1F (stereo not drawn) [Compound 58],,> 25,,
COc1ccccc1C1C2=C(CCC(C)(C)C2=O)Nc2n[nH]c(C)c21 (stereo not drawn) [Compound 45],> 50,> 25,20,
COc1ccccc1C1C2=C(CC(C)(C)CC2=O)Nc2n[nH]c(C(C)C)c21 (stereo not drawn) [Compound 49],> 50,> 25,14,
CC1(C)CC(=O)C2=C(C1)Nc1n[nH]c(C(F)(F)F)c1C2c1ccc(F)cc1C(F)(F)F (stereo not drawn) [Compound 65],,> 25,130,
"Cc1[nH]nc2c1C(c1ccccc1Cl)C1=C(CC(C)(C)CC1=O)N2 (stereo not drawn) [Compound 13, 4-(2-chlorophenyl)-3,7,7-trimethyl-6,7,8,9-tetrahydro-2H-pyrazolo[3,4-b]quinolin-5(4H)-one]",,,,"EC50 ([1]; Homo sapiens, U2OS): 41.1 µM; EC50 [4]: 24 µM; EC50 ([5]; Homo sapiens, SH-SY5Y): 2.49 µM"
